The values below come from BindingDB's records for doi:10.7270/Q2R78CQV (Burnham Center For Chemical Genomics, 2011).

The target of this test is Hexokinase HKDC1 [W721R] (Homo sapiens, UniProt Q2TB90, W721R). Put plainly: HKDC1 hexokinase activators, dose response, biochemical, W721R variant (AID 504730).

pEC50: −log10 of the molar value.

Hexokinase HKDC1 [W721R], sequence (Q2TB90 whole entry W721R): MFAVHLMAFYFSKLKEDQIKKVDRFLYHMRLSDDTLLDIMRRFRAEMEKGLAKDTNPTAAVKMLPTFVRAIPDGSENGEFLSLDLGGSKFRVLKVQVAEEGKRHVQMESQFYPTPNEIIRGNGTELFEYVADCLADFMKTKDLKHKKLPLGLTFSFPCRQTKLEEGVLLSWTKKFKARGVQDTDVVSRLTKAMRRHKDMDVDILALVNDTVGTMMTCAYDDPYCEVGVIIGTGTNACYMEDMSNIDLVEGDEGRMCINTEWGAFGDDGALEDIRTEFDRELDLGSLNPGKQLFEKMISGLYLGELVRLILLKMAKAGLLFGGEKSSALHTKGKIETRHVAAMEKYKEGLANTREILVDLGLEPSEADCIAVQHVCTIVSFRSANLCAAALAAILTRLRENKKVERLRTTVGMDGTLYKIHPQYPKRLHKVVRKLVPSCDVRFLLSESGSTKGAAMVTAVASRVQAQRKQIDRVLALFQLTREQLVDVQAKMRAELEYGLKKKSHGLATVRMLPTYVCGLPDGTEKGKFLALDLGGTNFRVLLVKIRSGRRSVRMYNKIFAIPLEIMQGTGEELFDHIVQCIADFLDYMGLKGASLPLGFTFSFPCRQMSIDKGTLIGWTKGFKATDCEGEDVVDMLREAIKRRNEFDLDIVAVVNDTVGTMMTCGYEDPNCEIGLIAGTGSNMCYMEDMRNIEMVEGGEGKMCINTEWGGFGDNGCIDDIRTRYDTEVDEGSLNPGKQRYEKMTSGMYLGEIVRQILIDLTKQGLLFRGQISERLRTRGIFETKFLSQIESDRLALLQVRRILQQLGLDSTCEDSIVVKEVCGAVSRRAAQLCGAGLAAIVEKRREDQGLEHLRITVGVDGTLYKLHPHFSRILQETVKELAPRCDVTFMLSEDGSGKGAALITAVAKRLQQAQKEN

For the compound `COCc1cc(C2C(C(=O)c3ccco3)C(=O)C(=O)N2CCOCCO)ccc1O` (centres undefined) [3-(furan-2-carbonyl)-4-hydroxy-1-[2-(2-hydroxyethoxy)ethyl]-2-[4-hydroxy-3-(methoxymethyl)phenyl]-2H-pyrrol-5-one], the pEC50 – broadly, −log10 of the EC50, conventionally taken in molar units – is under 4.10.

Turning to `CC(N=Nc1nc2ccccc2o1)c1cc2ccccc2cn1` (centres undefined), the pEC50 is 5.65.

`Nn1cnnc1N=NCc1cc(Br)cc(Br)c1O` had a pEC50 of under 4.10.

`CC(=O)Oc1cccc2c(O)c3c(c(O)c12)CC=CC3OC(C)=O` (centres undefined) [SMR001574207] gave a pEC50 of 4.29.

Turning to `Oc1c(Cl)c(N=Cc2cccnc2)c(O)c2ccccc12` [MLS001195521], the pEC50 is 5.03.

`CCCOC1=CC(=O)C(C=NNC(=S)Nc2ccccc2[N+](=O)[O-])C=C1` (centres undefined) [1-(2-nitrophenyl)-3-[[(E)-(6-oxo-4-propoxy-1-cyclohexa-2,4-dienylidene)methyl]amino]thiourea] had a pEC50 of 4.58.

`CC(C)(C)c1nnc(N=NCc2cc(Br)ccc2O)n(N)c1=O` [4-azanyl-3-[2-[(E)-(3-bromanyl-6-oxidanylidene-cyclohexa-2,4-dien-1-ylidene)methyl]hydrazinyl]-6-tert-butyl-1,2,4-triazin-5-one] showed a pEC50 of 4.70.

`O=C1C(=C2C(=O)c3ccccc3C2=O)Nc2ccccc21` [MLS000071738] had a pEC50 of 4.61.

For the compound `Cc1[nH]n(-c2ccccc2)c(=O)c1CN=Nc1nncc(-c2ccccc2)n1` [(4E)-5-methyl-2-phenyl-4-[[(5-phenyl-1,2,4-triazin-3-yl)hydrazo]methylidene]-3-pyrazolone], the pEC50 was 5.17.
